We go through 13 molecules from ChEMBL document CHEMBL2385001, “Synthesis and evaluation of 7-chloro-4-(piperazin-1-yl)quinoline-sulfonamide as hybrid antiprotozoal agents” (Bioorg Med Chem, 2013).

SMILES strings stand for the structures.

Series [1] is described as follows: Hemolytic activity in human RBC at 100 uM after 48 hrs relative to control. It counts as ADME, cell-based, Erythrocyte. The following applies: red blood cells, read-out: Activity.
The next series has as its system Entamoeba histolytica. Description: Antiamoebic activity against trophozoite stage of Entamoeba histolytica HM-1:IMSS assessed as growth inhibition after 72 hrs by microdilution method. Type of series: functional, organism-based.
The test system of a further series is Plasmodium falciparum. Description: Antimalarial activity against chloroquine-resistant Plasmodium falciparum FCR-3 assessed as growth inhibition after 24 hrs by [3H]-hypoxanthine incorporation assay. The conditions noted are these: FCR-3/Gambia. It counts as functional.
Series [2] in a line: Cytotoxicity against human HT-29 cells assessed as cell viability at 100 uM after 48 hrs by MTT assay relative to control. The conditions noted are these: read-out: Activity. Type of series: cell-based.
The nature of series [3]: Inhibition of beta-haematin formation after 24 hrs by microtiter plate assay. Type of series: functional.
Series [4] can be described thus: Cytotoxicity against human HT-29 cells assessed as growth inhibition at 100 uM after 48 hrs by MTT assay relative to control. Type of series: cell-based. The conditions noted are these: read-out: GI.
The nature of series [5]: Safety index, ratio of cytotoxicity against human HT-29 cells to antiamoebic activity against trophozoite stage of Entamoeba histolytica HM-1:IMSS. It counts as toxicity, cell-based. The conditions noted are these: read-out: Selectivity Index.
Series [6] is described as follows: Safety index, ratio of cytotoxicity against human HT-29 cells to antimalarial activity against chloroquine-resistant Plasmodium falciparum FCR-3. Type of series: toxicity, cell-based. The conditions noted are these: read-out: Selectivity Index.

Turning to `O=S(=O)(c1ccccc1)N1CCN(c2ccnc3cc(Cl)ccc23)CC1`, in series [1], the hemolysis at 48 h, 100 µM amounted to 0.01%. The figures for the concentration for half-maximal inhibition (IC50) (with Entamoeba histolytica; with Plasmodium falciparum; in series [3]) were 32.8 µM, 4.02 µM and 18.1 µM, respectively. In addition, the viability at 48 h, 100 µM in series [2] came out at 55.1%. Besides, in series [4], the inhibition at 48 h, 100 µM stood at 45%.
Consider `Cc1ccc(S(=O)(=O)N2CCN(c3ccnc4cc(Cl)ccc34)CC2)cc1`, for which the hemolysis at 48 h, 100 µM in series [1] is 0.62%. Also, the IC50 was determined as 4.54 µM with Entamoeba histolytica, 4.22 µM with Plasmodium falciparum and 8.92 µM in series [3]. In addition, the selectivity ratio in series [5] was found to be 14. For the same molecule, the viability at 48 h, 100 µM in series [2] is 64.5%.
`CS(=O)(=O)N1CCN(c2ccnc3cc(Cl)ccc23)CC1`: the hemolysis at 48 h, 100 µM in series [1] worked out at 0.01%. Also, the half-maximal inhibitory concentration (IC50) with Entamoeba histolytica is over 100 µM; in the series with Plasmodium falciparum, 8.54 µM; in series [3], 13.5 µM. In addition, the viability at 48 h, 100 µM in series [2] is 73%.
As for `O=S(=O)(c1ccc(Cl)cc1)N1CCN(c2ccnc3cc(Cl)ccc23)CC1`, in series [1], the hemolysis at 48 h, 100 µM amounted to 1.4%. Moreover, the IC50 with Entamoeba histolytica is 25.7 µM; with Plasmodium falciparum, 3.27 µM; in series [3], 34.8 µM. The viability at 48 h, 100 µM in series [2] is 61.3%.
Take `O=S(=O)(c1cc(Cl)ccc1Cl)N1CCN(c2ccnc3cc(Cl)ccc23)CC1`: the hemolysis at 48 h, 100 µM in series [1] is 2.06%. Also, the IC50 turned out to be 30.2 µM in the series with Entamoeba histolytica, 2.55 µM in the series with Plasmodium falciparum and 47.2 µM in series [3]. Further, the viability at 48 h, 100 µM in series [2] was determined as 63.4%.
Turning to `O=S(=O)(c1ccc2ccccc2c1)N1CCN(c2ccnc3cc(Cl)ccc23)CC1`, the hemolysis at 48 h, 100 µM in series [1] is 0.97%. The IC50 in the series on Entamoeba histolytica came to 23.4 µM; in the series on Plasmodium falciparum, 3.06 µM; in series [3] it was 71.2 µM. Further, in series [2], the viability at 48 h, 100 µM was found to be 59.8%.
As to `CC(C)(C)c1ccc(S(=O)(=O)N2CCN(c3ccnc4cc(Cl)ccc34)CC2)cc1`, the hemolysis at 48 h, 100 µM in series [1] worked out at 1.36%. Besides, the IC50 in the series on Entamoeba histolytica was 2.86 µM; in the series on Plasmodium falciparum, 6.09 µM; in series [3] it was 72.4 µM. Besides, the selectivity ratio in series [5] was 24. Besides, the viability at 48 h, 100 µM in series [2] was 67.7%.
With `COc1ccc(S(=O)(=O)N2CCN(c3ccnc4cc(Cl)ccc34)CC2)cc1`, the hemolysis at 48 h, 100 µM in series [1] was determined as 6.03%. Besides, the half-inhibitory concentration (IC50) worked out at 8.23 µM in the series with Entamoeba histolytica, 3.3 µM in the series with Plasmodium falciparum and 9.04 µM in series [3]. In series [2], the viability at 48 h, 100 µM came out at 68.1%.
Regarding `O=[N+]([O-])c1ccccc1S(=O)(=O)N1CCN(c2ccnc3cc(Cl)ccc23)CC1`, the hemolysis at 48 h, 100 µM in series [1] came out at 0.01%. In addition, the 50% inhibitory concentration (IC50) is over 100 µM in the series with Entamoeba histolytica, 1.94 µM in the series on Plasmodium falciparum and 63.5 µM in series [3]. In series [2], the viability at 48 h, 100 µM amounted to 86.1%. For the same molecule, the selectivity ratio in series [6] worked out at 44. In addition, the inhibition at 48 h, 100 µM in series [4] stood at 17%.
With `CCCS(=O)(=O)N1CCN(c2ccnc3cc(Cl)ccc23)CC1`, in series [1], the hemolysis at 48 h, 100 µM amounted to 0.82%. Also, the IC50 was over 100 µM in the series with Entamoeba histolytica, 1.72 µM in the series on Plasmodium falciparum and 1.79 µM in series [3]. For the same molecule, the viability at 48 h, 100 µM in series [2] worked out at 67.1%. Further, in series [6], the selectivity ratio was 39. Besides, in series [4], the inhibition at 48 h, 100 µM was 17%.
Turning to `CC(=O)Nc1ccc(S(=O)(=O)N2CCN(c3ccnc4cc(Cl)ccc34)CC2)cc1`, the hemolysis at 48 h, 100 µM in series [1] amounted to 0.83%. The IC50 came to 9.61 µM with Entamoeba histolytica, 1.16 µM with Plasmodium falciparum and 8.84 µM in series [3]. Further, the viability at 48 h, 100 µM in series [2] amounted to 96.8%. The selectivity ratio in series [6] amounted to 84. Besides, the inhibition at 48 h, 100 µM in series [4] was determined as 17%.
For the molecule `CC[C@@]1(O)C(=O)OCc2c1cc1n(c2=O)Cc2cc3ccccc3nc2-1` [CAMPTOTHECIN], the viability at 48 h, 100 µM in series [2] amounted to 48.3%. In addition, the inhibition at 48 h, 100 µM in series [4] was 52%.
On to `C=C[C@H]1CN2CC[C@H]1C[C@H]2[C@H](O)c1ccnc2ccc(OC)cc12` [QUININE], for which the hemolysis at 48 h, 100 µM in series [1] was determined as 2.14%. For the same molecule, the IC50 stood at 0.17 µM with Plasmodium falciparum and 22.1 µM in series [3].
